Test results reported in patent US11155576B2, “Synthetic peptides, enzymatic formation of pericellular hydrogels/nanofibrils, and methods of use” (BRANDEIS UNIVERSITY, priority 2014, dated 2021).
Entries after “also recorded” stand apart in the source; their conditions may differ. Square brackets hold non-standard residues; d marks the D form. Peptide text beside a SMILES is read from it. * marks the point of attachment. ξ: configuration not given here. d(pY) = N[C@H](Cc1ccc(OP(=O)(O)O)cc1)C(=O)O; NBD = O=[N+]([O-])c1ccc(*)c2nonc12; ξ2Nal = NC(Cc1ccc2ccccc2c1)C(=O)O; βAla = NCCC(=O)O

How the values were obtained:
HeLa cells [1] = assay: Fluorescence imaging of HeLa/HS-5 co-culture, HeLa; format: cell-based, human; conditions: co-culture of HeLa and HS-5, 500 μM, 6 and 24 hours
Description: (§1) FIGS. 17A-C illustrates that phosphatases catalyze self-assembly to form fluorescent nanofibrils with high spatiotemporal resolution. FIG. 17A is an illustration of phosphatase-catalyzed spatiotemporal formation of fluorescent pericellular nanofibrils in co-culture mimicking tumor microenvironment. […] ALP or tyrosine phosphatase (“PTP”) converts D-3a to D-3b, which self-assembles in physiological condition to form fluorescent nanofibrils of D-3b. FIG. 17C contains a pair of fluorescent images showing that the fluorescent nanofibrils of D-3b selectively form on HeLa cells (the cancer cell, identified by arrows) and […] (the stromal cell, indicated by the arrow heads) in the co-culture of HeLa and HS-5. [D-3a]=500 μM, 6 hours (left panel) and 24 hours (right panel) incubation (scale bar=10 μm, the nuclei stained by Hoechst 33342, a DNA dye for live cells).
(§2) Co-culture of cancer cell (i.e., HeLa cells) and stromal cells (i.e., HS-5 cells) mimics the tumor microenvironment (Straussman et al., Nature 487:500-U118 (2012), which is hereby incorporated by reference in its entirety). […] This approach also offers a method for the visualization of live cells that express ectophosphatases.

HS-5 cells = assay: Fluorescence imaging of HeLa/HS-5 co-culture, HS-5; format: cell-based; conditions: co-culture of HeLa and HS-5, 500 μM, 6 and 24 hours
Description: as §1, §2

PC-12 Adh = assay: Ectophosphatase imaging of live cells, PC-12 Adh; format: cell-based, rat; conditions: 500 μM, 24 hour incubation
Description: (§3) FIGS. 18A-H show imaging and ectophosphatase quantification of live cells incubated with D3-a. FIGS. 18A-F show confocal microscopy images. […] The scale bar is […]. The images in FIG. 18B show the time course of fluorescence on HeLa cells incubated with D3-a for 30 minutes, 1 hour, 3 hours, and 6 hours, respectively. Nuclei were stained with Hoechst 33342. FIG. 18C is a 3D stacked z-scan image of fluorescence on HeLa cells treated with D-3a for 6 hours. […] Scale bar: 100 μm for FIG. 18B, upper panels and FIG. 18D; 10 μm for FIG. 18B, lower panels, FIG. 18E, and FIG. 18F. [D-3a]=500 μM for enhancing spatiotemporal resolution. […] FIG. 18H is a plot of time versus the fluorescence of pericellular nanofibrils on HeLa cells treated with D-3a. The initial cell number is 5,000 cells/well. All the confocal microscope images were taken after removing the medium with D-3a and then adding the live cell image solution (Invitrogen Life Technologies A14291DJ). [D3-a]=500 μM for FIGS. 18G-H.
(§4) To validate D-3a as an effective agent for the detection of phosphatase activity on a wide variety of cells, the cellular ectophosphatase activity of various cell lines, including PC-12, Capan-2, A375, Ect1/E6E7, and C3H10T1/2, was evaluated following 24 hour incubation of cells with 500 μM D-3a (FIG. 18A).

Capan-2 = assay: Ectophosphatase imaging of live cells, Capan-2; format: cell-based, human; conditions: 500 μM, 24 hour incubation
Description: as §3, §4

A375 = assay: Ectophosphatase imaging of live cells, A375; format: cell-based, human; conditions: 500 μM, 24 hour incubation
Description: as §3, §4

Ect1/E6E7 = assay: Ectophosphatase imaging of live cells, Ect1/E6E7; format: cell-based, human; conditions: 500 μM, 24 hour incubation
Description: as §3, §4

C3H10T1/2 = assay: Ectophosphatase imaging of live cells, C3H10T1/2; format: cell-based, murine; conditions: 500 μM, 24 hour incubation
Description: as §3, §4

HeLa cells [2] = assay: Ectophosphatase imaging of live cells, HeLa time course; format: cell-based, human
Description: as §3
To investigate the spatiotemporal resolution of D-3a fluorescence, HeLa cells were incubated with 500 μM D-3a for varying amounts of time (30 minutes, 1 hour, 3 hours, and 6 hours, respectively) and imaged by confocal microscopy (FIG. 18B). […] Quantification of ectophosphatase activity on the surface of HeLa cells treated with 500 μM of D-3a is shown in FIGS. 18G-18H as a function of cell number or time, respectively.

[3] = tested on: Alkaline-phosphatase (“ALP”); conditions: D-3a; ALP (2 U/ml) in FIG. 38B
Description: […] Scale bar=100 nm.
Napthalene capped tripeptide precursor molecule D-2a and hydrogelator molecule D-2b, synthesized according to Yang et al. (Small 3:558-562 (2007), which is hereby incorporated by reference in its entirety), are comprised of the tripeptide D-Phe-D-Phe-D-Tyr (FIG. 1B). The D-Tyr of D-2a is phosphorylated (FIG. 1B).

HeLa cells [4] = assay: Pericellular hydrogelation on HeLa cells (optical images); format: cell-based, human; conditions: 560 μM, 2 hours at 37° C.
Description: An 11.2 mM (8.09 mg/mL) stock solution of D-2a was prepared in ddH2O. The pH was adjusted to 7.4 using 1N NaOH. 2×10^5 cells in exponential growth phase were seeded in 35 mm Petri dish with 1 mL complete culture medium. Following overnight incubation, the medium was replaced with 1 mL of medium containing D-2a (diluted from the stock solution immediately prior to use). Petri dishes were incubated at 37° C. for two hours. Next, dishes were removed from the incubator and titled on a bench to visualize the pericellular hydrogel. Prior to co-incubation with phosphatase inhibitors, cells were washed three times with medium containing Pierce phosphatase inhibitor cocktail (Thermo) (contains sodium floride, sodium orthovanadate, sodium pyrophosphate, and beta-glycerophosphate). Next, 1 mL of medium containing both the inhibitor cocktail and D-2a was applied to the cells.

[5] = tested on: secretory phosphatases present in HeLa cell conditioned medium; assay: Hydrogelation in HeLa cell conditioned medium; format: biochemical, human; conditions: 560 μM, 48 hours
Description: 2×10^5 of cells in exponential growth phase were seeded in a 35 mm Petri dish with 1 mL complete culture medium. Following overnight incubation, 1 mL of new medium was replaced and incubated for 24 h at 5% CO2, 37° C. The medium was next removed and centrifuged at 10,000 rpm for 5 minutes. The suspension was placed into a 1.5 mL Eppendorf® tube and stored at −20° C. Stored conditioned medium was thawed and warmed to 37° C. in water bath immediately before use.
HeLa cell conditioned medium (“CM”) dephosphorylates D-2a to form D-2b nanofibrils.

HeLa cells [6] = assay: Cell adhesion assay; format: cell-based, human; conditions: 560 μM, trypsinized HeLa cells, at 4 hours
Description: Cells in exponential growth phase were detached using 0.25% trypsin-EDTA. After neutralizing trypsin by addition of complete culture medium, the cells were collected by centrifuge (1000 rpm, 3 min). The cell pellet was suspended by addition of culture medium to a concentration of 4×10^5 cells/mL. 1 mL of the cell suspension was mixed with 1 mL of 2×D-2a or D-2b containing culture media. The resulting solutions were added into 96 well plate at 100 μL/well. After the desired time of incubation at 37° C., 5% CO2, the solution was gently removed, and then 100 μL of culture medium and 10 μL of 5 mg/mL MTT were added to each well. Following 4 hour incubation in the dark, 100 μL of 10% SDS with 0.01M HCl was added to each well to stop the reduction reaction and to dissolve the purple. After incubation of the cells at 37° C. for overnight, the viability was measured. Data represent the mean±standard deviation of three independent experiments.

HeLa cells [7] = assay: Cell viability assay (MTT), HeLa; format: cell-based, human; conditions: 280 μM, direct addition
Description: Cells in exponential growth phase were seeded in a 96 well plate at a concentration of 2×10^4 cells/well. The cells were allowed to attach to the wells for 24 hours at 37° C., 5% CO2. The culture medium was removed and 100 μL culture medium containing compounds (immediately diluted from fresh prepared stock solution of 10 mM) at gradient concentrations (0 μM as the control) was placed into each well. After culturing at 37° C., 5% CO2 for 48 hours, each well was added by 10 μL of 5 mg/mL MTT (3-(4,5-dimethylthiazoL-2-yl)-2,5-diphenyltetrazolium bromide), and the plated cells were incubated in the dark for 4 hours. 100 μL 10% SDS with 0.01M HCl was added to each well to stop the reduction reaction and to dissolve the purple. After overnight incubation of the cells at 37° C., the OD at 595 nm of the solution was measured in a microplate reader. Data represent the mean±standard deviation of three independent experiments.

HeLa cells [8] = assay: LC-MS composition of pericellular hydrogel/nanofibrils and suspension medium of HeLa cells; format: in vitro ADME, human; conditions: HeLa cells incubated with precursor at 560 μM at 37° C. for 12 hours

O=C(CCNc1ccc([N+](=O)[O-])c2nonc12)NC(Cc1ccc2ccccc2c1)C(=O)N[C@H](Cc1ccccc1)C(=O)N[C@H](Cc1ccccc1)C(=O)N[C@H](Cc1ccc(OP(=O)(O)O)cc1)C(=O)O (stereo partly drawn) [D-3a, NBD-D-Nal-D-Phe-D-Phe-D-pTyr] ({NBD-βAla}-[ξ2Nal][dF][dF][d(pY)]-OH)
NBD fluorescence on cancer cells in co-culture (HeLa cells [1]): selective formation of bright yellow (NBD) fluorescence on the surface of the cancer cells | NBD fluorescence on stromal cells in co-culture (HS-5 cells): only yellow puncta are observed inside the HS-5 stromal cells | Cell surface exhibiting NBD fluorescence (PC-12 Adh): more than 50% | NBD fluorescence (Capan-2): weak | NBD fluorescence (A375): no fluorescence | NBD fluorescence (Ect1/E6E7): strong fluorescence in the cytosol | NBD fluorescence (C3H10T1/2): sporadic fluorescence on cell surface | Cell surface fluorescence over time (HeLa cells [2]; 500 μM, 30 minutes, 1 hour, 3 hours, 6 hours): increased cell surface fluorescence with time | Fluorescence after re-incubation in fresh medium (HeLa cells [2]; 6 hour incubation with D-3a, then fresh medium for 24 hours): only nuclear dye fluorescence | Hydrogel formation after phosphatase-catalyzed dephosphorylation [3]: self-assembles to form the fluorescent nanonets/hydrogel

Nap-D-Phe-D-Phe-D-Tyr [D-2b]
Pericellular hydrogel formation on HeLa cells (HeLa cells [4]): hardly any hydrogelation; also recorded: does not form pericellular hydrogels | Hydrogel formation in HeLa cell conditioned medium [5]: fails to form a hydrogel | Cells reattached to surface (HeLa cells [6]): > 80% | Growth inhibition of HeLa cells (HeLa cells [7]): hardly inhibits the growth

O=C(Cc1ccc2ccccc2c1)N[C@@H](Cc1ccccc1)C(=O)N[C@@H](Cc1ccccc1)C(=O)N[C@@H](Cc1ccc(OP(=O)(O)O)cc1)C(=O)O [L-2a]
L-2b in suspension medium (HeLa cells [8]): 176.6 µM | L-3 in suspension medium (HeLa cells [8]): 270.4 µM
